For assay [1], the system named is cholesterol absorption. In words: Acute rat cholesterol absorption study. The format is in vivo. The settings on record: rat acute cholesterol absorption model. The protocol:
To determine if in vitro binding activity is predictive of in vivo efficacy, the enantiomer of ezetimibe glucuronide and several close structural analogues of ezetimibe glucuronide that were tested in the rat membrane binding assay were tested in an acute rat cholesterol absorption study as described in Examples 23-26. […] For the other analogs, the same rank order of potency is observed in the in vitro and in vivo assays, further evidence that the observed binding is due to the target of ezetimibe.

The test system of assay [2] is intestinal cholesterol absorption. In words: Cholesterol absorption in mice, dual fecal isotope ratio method. The format is in vivo, mouse. The protocol: Cholesterol absorption in the mice was determined by the dual fecal isotope ratio method as described by Altmann et al. (Biochim. Biophys. Acta. 1580(1): 77-93 (2002)). Mice (n—4-6/group) were fed a standard rodent chow diet and in some groups treated daily with a maximally effective dose of ezetimibe (10 mg/kg). Mice were gavaged with ^14C-cholesterol (1 μCi, 0.1 mg unlabeled cholesterol) and ^3H-sitostanol (2 μCi) in 0.1 ml corn oil. Feces were collected for 2 days and fecal ^14C-cholesterol and ^3H-sitostanol levels were determined by combustion in a Packard Oxidizer. The fraction of cholesterol absorbed, as evaluated by the fecal dual isotope technique, was similar in wild type (+/+) and heterozygous mice (+/−) fed a chow diet (heterozygous mice absorbed 46±5% and age matched wild type mice absorbed 51±3% of the dose of ^14C-cholesterol). The NPC1L1 knockout mice (−/−) absorbed 15.6±0.4% of the ^14C-cholesterol, which was similar to the wild type mice treated with a maximally effective dose of ezetimibe (16.1±0.3%), and reduced by 69% compared to wild type mice (p<0.001). In NPC1L1 knockout treated with ezetimibe at 10 mg/kg/day, cholesterol absorption was similar to that seen in the untreated knockout mice (16.2±0.6% compared to 15.6%±0.4%, respectively). […]

In assay [3] the target is T1, mouse NPC1L1 (Mus musculus, UniProt Q6T3U4).
T1 construct: expressed in transfected cells; pCDNA3)
In words: Effect of ezetimibe on cholesterol uptake, mouse NPC1L1 transfected CHO cells. The format is cell-based. The settings on record: EZ (10 μM), mNPC1L1(C7). The protocol:
(§1) The effect of ezetimibe on the ability of CHO cells stably transfected with mouse or rat NPC1L1 or mouse SR-B1 to take up ^3H-labeled cholesterol was evaluated in pulse-chase experiments. One cDNA clone of mouse NPC1L1 (C7) and three clones of rat NPC1L1 (C7, C17 and C21) were evaluated. The ability of CHO cells stably transfected with mouse SR-B1, mouse NPC1L1 and rat NPC1L1 to take up labeled cholesterol, in the absence of ezetimibe, was also evaluated in the pulse-chase experiments. Data generated in these experiments are set forth, below, in Tables 4 and 5. Additionally, the quantity of total cholesterol taken up by transfected and untransfected CHO cells in the presence of four different unlabeled cholesterol concentrations was also evaluated.
(§2) Starve. The maintenance media (F12 HAMS, 1% Pen/Strep, 10% FCS) was removed and the cells were rinsed with serum-free HAMS media. The serum-free media was then replaced with 1 mL “starve” media (F12 HAMS, Pen/Strep, 5% lipoprotein deficient serum (LPDS). The cells were then starved overnight.
(§3) Pre-Incubation/pre-dose. Media was removed from all plates and replaced with fresh starve media and preincubated for 30 minutes. Half of the wells received media containing ezetimibe (stock soln in EtOH; final conc.=10 μM).
(§4) ^3H-Cholesterol Pulse. The following was added directly to each well: • 0.5 μCi ^3H-cholesterol (˜1.1×10^6 dpm/well) in 50 μl of a mixed bile salt micelle • 4.8 mM sodium taurocholate (2.581 mg/mL) • 0.6 mM sodium oleate (0.183 mg/mL) • 0.25 mM cholesterol (0.1 mg/mL) • Dispersed in “starve” media by ultrasonic vibration • Final media cholesterol concentration=5 μg/mL
(§5) Labeled cholesterol pulse time points were 4, 12, 24 minutes and 4 hours. Triplicate wells were prepared for each treatment.
(§6) Wash. At designated times, media was aspirated and cells were washed once with Hobbs Buffer A (50 mM Tris, 0.9% NaCl, 0.2% bovine serum albumin (BSA), pH 7.4) and once with Hobbs Buffer B (50 mM Tris, 0.9% NaCl, pH 7.4 (no BSA)) at 37° C.
(§7) A. 4, 12, 24 minute time points: Cells were digested overnight with 0.2N NaOH, 2 mL/well, room temperature. One 1.5 mL aliquot was removed from each well, neutralized & counted for radioactivity by scintillation counting.
(§8) B. 4 hour time point: The digested cells were analyzed by thin-layer chromatography to determine the content of cholesterol ester in the cells.
(§9) Extracts were spotted onto TLC plates and run for 30 minutes in 2 ml hexane:isopropanol (3:2) mobile phase for 30 minutes, followed by a second run in 1 ml hexane:isopropanol (3:2) mobile phase for 15 minutes.
(§10) C. Protein determination of cell extracts. Plates containing a sample of the cell extracts were placed on orbital shaker at 120 rpm for indicated times and then extracts are pooled into 12×75 tubes. Plates were dried and NaOH (2 ml/well) added. The protein content of the samples were then determined. Two additional 50 μl aliquots from all wells were assayed for total protein by the Pierce micro BCA method. The quantity of labeled cholesterol observed in the cells was normalized to the quantity of protein in the cells.

The test system of assay [4] is CHO background (no transfection). In words: Effect of ezetimibe on cholesterol uptake, CHO background. The format is cell-based, chinese hamster. The settings on record: EZ (10 μM), CHO Control. The protocol:
as §1, §2, §3, §4, §5, §6, §7, §8, §9, §10

Entries after “also recorded” stand apart in the source; their conditions may differ.

In the case of `O=C(O)C1OC(Oc2ccc(C3C(CCC(O)c4ccc(F)cc4)C(=O)N3c3ccc(F)cc3)cc2)C(O)C(O)C1O` (single isomer, unassigned) [Compound 4], the activity in vivo result in assay [1] is “inactive; also recorded: lack of activity”.

In the case of `O=C1[C@H](CC[C@H](O)c2ccc(F)cc2)[C@@H](c2ccc(O)cc2)N1c1ccc(F)cc1` [ezetimibe], the “fraction of ^14C-cholesterol absorbed” value was 16.2±0.6% in assay [2] (NPC1L1 knockout mice, ezetimibe 10 mg/kg/day) and 16.1±0.3% in assay [2] (wild type mice, ezetimibe 10 mg/kg daily). For the same compound, the “Cholesteryl Ester, dpm ± sem” value in assay [3] (4 Hour Pulse) was found to be 453 ± 118 dpm; in assay [4] (4 Hour Pulse), 208 ± 9 dpm. Further, the “Cholesteryl Ester, dpm/mg protein ± sem” value in assay [3] (4 Hour Pulse) is recorded as 3057 ± 776 dpm/mg protein; in assay [4] (4 Hour Pulse) it was 1902 ± 87 dpm/mg protein. The results for the “Free Cholesterol, dpm ± sem” value in assay [3] (4 Hour Pulse) and in assay [4] (4 Hour Pulse) were 77516 ± 1910 dpm and 56792 ± 568 dpm, respectively. For the same compound, the entries for the “Free Cholesterol, dpm/mg protein ± sem” value in assay [3] (4 Hour Pulse) and in assay [4] (4 Hour Pulse) were 523803 ± 10386 dpm/mg protein and 519607 ± 16203 dpm/mg protein, respectively. Further, the “Total Cholesterol, dpm ± sem” value is on record as 4569 ± 222 dpm in assay [3] (4 Min Pulse); 6120 ± 755 dpm in assay [3] (12 Min Pulse); 9749 ± 482 dpm in assay [3] (24 Min Pulse); 3222 ± 26 dpm in assay [4] (4 Min Pulse); 4532 ± 165 dpm in assay [4] (12 Min Pulse); 6678 ± 215 dpm in assay [4] (24 Min Pulse). Besides, the “Total Cholesterol, dpm/mg protein ± sem” value in assay [3] (4 Min Pulse) amounted to 30916 ± 1137 dpm/mg protein; in assay [3] (12 Min Pulse), 41712 ± 4054 dpm/mg protein; in assay [3] (24 Min Pulse), 74041 ± 3670 dpm/mg protein; in assay [4] (4 Min Pulse), 31881 ± 483 dpm/mg protein; in assay [4] (12 Min Pulse), 43391 ± 1197 dpm/mg protein; in assay [4] (24 Min Pulse), 61764 ± 2131 dpm/mg protein.

The values are drawn from patent US7901893B2, “NPC1L1 (NPC3) and methods of identifying ligands thereof” (Merck Sharp & Dohme Corp., priority 2004, dated 2011).
